{
  "source": "patent US9339508B2",
  "about": "“Use of 3-methoxy-pregnenolone for the preparation of a drug for treating a traumatic brain injury” (MAPREG, priority 2003, dated 2016)",
  "key": {"PC12 cells": {"system": "PC12 cells", "test": "Neuritic growth / sprouting of PC12 cells in the presence of NGF", "format": "cell-based, rat", "settings": "30 μM; for Neuritic sprouting: 3 days, NGF 10 ng/ml, relative to PREG", "description": "Each molecule was tested in three culture wells. Measurements were taken for 200 cells per well using Scion Image software.\nNeurite (neurite) length was measured for 200 cells per well after 2, 5, and 8 days of culture.\nTo rest the effect of selected molecules on neuritic growth, we first used the PC12 line, which has long been employed in neurobiological research. In the presence of NOF (nerve growth factor), the cells of this line, which arise from a rat pheochromocytoma, form neuritic extensions containing MAP-associated microtubules.\nStimulation of neuritic sprouting is conducted on PC12 cells differentiated in the presence of NGF (10 ng/ml) and the steroid being tested (30 μM) for 3 days. For each condition, the average length of the longest 200 neurites in each cell is measured simultaneously for 3 cultures."}, "[1]": {"molecular_target": "T1, human progesterone receptor (PR) (Homo sapiens, UniProt P06401)", "T1 construct": "expressed in transfected cells; host or cells: HEK293T cells", "T1 sequence (P06401 1-933)": "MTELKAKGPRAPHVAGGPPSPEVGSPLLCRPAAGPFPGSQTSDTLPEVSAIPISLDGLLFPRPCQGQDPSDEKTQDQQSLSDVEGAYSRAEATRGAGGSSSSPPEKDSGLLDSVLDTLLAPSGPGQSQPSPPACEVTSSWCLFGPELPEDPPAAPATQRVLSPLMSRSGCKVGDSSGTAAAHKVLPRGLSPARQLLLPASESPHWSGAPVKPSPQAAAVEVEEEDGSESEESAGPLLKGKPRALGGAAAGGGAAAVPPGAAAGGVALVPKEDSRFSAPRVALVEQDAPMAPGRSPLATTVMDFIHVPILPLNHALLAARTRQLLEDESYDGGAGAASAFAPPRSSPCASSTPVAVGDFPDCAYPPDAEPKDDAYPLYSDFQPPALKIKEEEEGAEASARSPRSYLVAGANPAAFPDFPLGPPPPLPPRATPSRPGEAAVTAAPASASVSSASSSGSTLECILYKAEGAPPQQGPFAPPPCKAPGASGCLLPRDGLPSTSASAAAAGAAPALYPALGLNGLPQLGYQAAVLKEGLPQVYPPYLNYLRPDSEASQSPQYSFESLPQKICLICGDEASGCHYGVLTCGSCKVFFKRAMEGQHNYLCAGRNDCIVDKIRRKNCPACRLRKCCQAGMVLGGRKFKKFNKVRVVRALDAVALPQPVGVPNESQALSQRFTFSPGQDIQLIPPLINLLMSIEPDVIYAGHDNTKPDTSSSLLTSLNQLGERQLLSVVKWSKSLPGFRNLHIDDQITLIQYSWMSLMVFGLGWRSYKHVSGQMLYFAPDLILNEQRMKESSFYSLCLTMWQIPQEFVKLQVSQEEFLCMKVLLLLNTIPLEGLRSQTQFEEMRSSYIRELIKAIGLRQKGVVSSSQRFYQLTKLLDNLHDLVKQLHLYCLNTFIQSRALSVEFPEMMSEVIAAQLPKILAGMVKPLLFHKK", "test": "Test of progesterone receptor antagonist activity (luciferase transactivation, HEK293T)", "format": "cell-based", "settings": "with progesterone 1 nM, increasing amounts", "description": "(§1) The main experimental setting used is the following: HEK293T cells were transiently transfected, using calcium phosphate precipitation technology, with expression receptors pSG5hPR (which permits expression of human progesterone receptor (PR)), pFC31-luc (contains the luciferase gene under the control of the MTV promoter, which is in turn activated by binding of a progestin to progesterone receptor) and pcbetagal (which permits expression of betagalactosidase), and cultured during 24 hours with increasing amounts of various compositions: • 1. […] Test of progesterone receptor […] activity: transfected cells were cultured with progesterone (1 nM) and increasing amounts of RU486 (a well-known progesterone receptor antagonist) or 3-methoxy-pregnenolone. • With this setting, a compound with progesterone receptor antagonist activity competes with progesterone for the occupation of progesterone receptor and results in a progressive loss of transactivation activity when the amount of this compound is increased compared to progesterone. Results"}, "[2]": {"system": "α-tubulin in rat hippocampus", "test": "Microtubule dynamics in rat hippocampus (Tyr/Glu-Tub ratio, Acet-Tub)", "format": "in vivo", "settings": "10 mg/kg subcutaneously, single administration", "excerpt": "Mean±SEM, n=6 per group. **P<0.01, *P<0.5 vs sesame oil.\nThe effects produced by neurosteroids were compared with those produced by acute administration of the antidepressant drug fluoxetine (selective serotonin reuptake inhibitor SSRI).\nNeurosteroids and 3-Methoxy-PREG (43B) Levels"}, "[3]": {"molecular_target": "purified tubulin and MAP2 (Homo sapiens, UniProt P11137)", "sequence (P11137 whole entry)": "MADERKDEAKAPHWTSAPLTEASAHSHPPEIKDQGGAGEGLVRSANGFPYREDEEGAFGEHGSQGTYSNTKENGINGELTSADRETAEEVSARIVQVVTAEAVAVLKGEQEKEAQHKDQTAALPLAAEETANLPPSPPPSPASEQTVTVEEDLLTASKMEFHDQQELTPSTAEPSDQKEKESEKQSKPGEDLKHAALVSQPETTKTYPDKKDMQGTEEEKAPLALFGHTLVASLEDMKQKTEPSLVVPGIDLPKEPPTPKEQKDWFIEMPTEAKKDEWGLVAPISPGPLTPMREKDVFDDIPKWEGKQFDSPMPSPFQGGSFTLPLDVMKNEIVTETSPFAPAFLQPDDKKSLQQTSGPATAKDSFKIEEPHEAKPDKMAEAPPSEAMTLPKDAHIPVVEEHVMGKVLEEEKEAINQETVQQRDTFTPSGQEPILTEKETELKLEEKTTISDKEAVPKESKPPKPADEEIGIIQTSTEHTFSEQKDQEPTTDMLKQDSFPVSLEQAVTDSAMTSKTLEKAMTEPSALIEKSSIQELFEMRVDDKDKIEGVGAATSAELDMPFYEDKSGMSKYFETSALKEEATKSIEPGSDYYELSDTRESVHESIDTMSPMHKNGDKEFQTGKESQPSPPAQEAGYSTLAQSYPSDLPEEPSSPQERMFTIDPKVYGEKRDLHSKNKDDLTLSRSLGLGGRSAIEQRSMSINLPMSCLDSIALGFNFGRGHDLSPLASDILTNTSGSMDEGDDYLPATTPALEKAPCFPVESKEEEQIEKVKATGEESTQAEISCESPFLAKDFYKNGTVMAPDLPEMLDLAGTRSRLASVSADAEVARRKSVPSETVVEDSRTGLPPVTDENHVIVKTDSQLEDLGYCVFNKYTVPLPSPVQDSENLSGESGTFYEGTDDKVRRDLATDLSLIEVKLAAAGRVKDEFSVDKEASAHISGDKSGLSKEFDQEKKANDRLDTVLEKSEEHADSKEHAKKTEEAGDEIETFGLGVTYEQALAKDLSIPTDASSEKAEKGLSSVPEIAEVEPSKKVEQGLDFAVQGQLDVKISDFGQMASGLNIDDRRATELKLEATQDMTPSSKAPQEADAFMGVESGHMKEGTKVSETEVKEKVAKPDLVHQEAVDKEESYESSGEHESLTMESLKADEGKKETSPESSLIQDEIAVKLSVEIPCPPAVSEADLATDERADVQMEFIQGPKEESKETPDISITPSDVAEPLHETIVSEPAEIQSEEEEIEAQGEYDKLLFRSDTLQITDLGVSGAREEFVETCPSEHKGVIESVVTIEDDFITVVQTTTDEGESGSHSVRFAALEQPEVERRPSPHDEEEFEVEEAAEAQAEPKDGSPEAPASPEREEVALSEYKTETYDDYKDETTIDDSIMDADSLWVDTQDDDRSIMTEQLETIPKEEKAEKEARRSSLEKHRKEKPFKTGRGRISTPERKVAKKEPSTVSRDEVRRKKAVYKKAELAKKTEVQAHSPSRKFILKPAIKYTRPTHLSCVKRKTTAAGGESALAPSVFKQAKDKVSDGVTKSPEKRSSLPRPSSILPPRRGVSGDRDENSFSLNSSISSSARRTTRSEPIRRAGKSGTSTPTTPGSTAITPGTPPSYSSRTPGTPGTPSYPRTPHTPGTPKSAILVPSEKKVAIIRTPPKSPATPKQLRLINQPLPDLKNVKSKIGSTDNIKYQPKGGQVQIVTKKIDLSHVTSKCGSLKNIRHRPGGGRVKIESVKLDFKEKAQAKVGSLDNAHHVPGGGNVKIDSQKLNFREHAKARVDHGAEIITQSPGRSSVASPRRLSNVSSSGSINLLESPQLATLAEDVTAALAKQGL", "test": "MAP2-induced polymerization of microtubules in vitro (optical density at 345 nm)", "format": "biochemical", "description": "Purified MAP2 and tubulin are mixed in the presence of GTP at 4° C. in a spectrophotometer cuvette. Polymerization is induced by heating at 37° C. and is followed by the increase in optical density (OD) which indicates the quantity of polymers formed.\nThis in vitro test measures the effect of molecules on the MAP2-induced polymerization of microtubules. This polymerization occurs when MAP2 proteins and tubulin are mixed at adequate concentrations in the presence of GTP. It is accompanied by an increase in optical density measured at 345 nm for 15 to 30 minutes with a UNICON spectrophotometer thermostated at 37° C. (FIG. 1).\nActivity is measured by the increase in optical density at 345 nm of a mixture of purified tubulin and MAP2, incubated at 37° C. in the presence of GTP."}, "[4]": {"molecular_target": "T1, human progesterone receptor (PR)", "test": "Test of progesterone receptor agonist activity (luciferase transactivation, HEK293T)", "format": "cell-based", "settings": "24 hours, increasing amounts", "description": "as §1"}, "Sprague Dawley rats": {"system": "Sprague Dawley rats", "test": "Forced swimming test (FST)", "format": "in vivo, rat", "settings": "10 mg/kg subcutaneously, 24, 5, 1 h before testing", "description": "Drugs were administered following the traditional dosing regimen used in the FST consisting of three injections: 24, 5, 1 h before testing.\nThe FET is currently the most widely used animal model for assessing depression related behavior and antidepressant drug activity in rodents (Cryan et al., Neubiorev. 2005). Rats are placed in an inescapable cylinder of water where they develop an immobile posture believed to reflect a “depressive”-like state. The Lime rats spend immobile is decreased by drugs exerting antidepressant activity.\nAdditional behaviors can be detected in the FST; namely, climbing and swimming. It has been shown that swimming behavior is sensitive to SSRIs such as fluoxetine whereas climbing is sensitive to norepinephrine re-uptake inhibitors (NRI) such as desipramine."}, "[5]": {"system": "transgenic mice expressing the longest isoform of human tau protein", "test": "RotaRod motor incoordination in transgenic tau mice", "format": "in vivo, mouse", "settings": "subcutaneous implant releasing 0.38 mg per day for 90 days", "excerpt": "FIG. 8: Effect of molecule 43B on the motor incoordination of transgenic mice expressing the longest isoform of human tau protein in their neurons. […] The maximum speed of rotation of the RotaRod drum before the […] falls is a measurement of motor coordination (higher values correspond to a better treatment effect).\nIn order to evaluate the therapeutic potential of 433 to treat Alzheimer-type neurodegenerative diseases, a homozygous transgenic line of mice, such as described by Götz (EMBO J. 1995; 14(7):1304-13), can be used.\nThese mice express the longest human tau protein isoform. They present symptoms of neurological dysfunction expressed as muscular weakness and a reduction in motor coordination which correlate histologically with the appearance of abnormal neurites and hyperphosphorylated tau proteins as is seen in Alzheimer's disease. This pathological phosphorylation decreases the affinity of tau for microtubules and favors its aggregation.\nA breeding program was undertaken at Bicêtre and genotyping made it possible to select mice homozygous for the transgene. […] The implants released 0.38 mg of steroid per day for 90 days. The progression of motor incoordination was followed by repeated RotaRod tests."}, "PC12 cell line": {"system": "PC12 cell line", "test": "Cellular toxicity on the PC12 cell line", "format": "cell-based, rat", "settings": "concentrations as high as solubility limits", "description": "Cellular toxicity tests are carried out routinely on the PC12 cell line."}, "[6]": {"settings": "40 μM, compared to solvent alone"}},
  "data": [
    {"compound": "CC(=O)O[C@H](C)[C@H]1CC[C@H]2[C@@H]3CC=C4C[C@@H](O)CC[C@]4(C)[C@H]3CC[C@]12C", "note": "[Pregna-5-ene-3β,20β-diol-20-acetate]", "values": [
      {"measurement": "Neuritic sprouting", "setting": "PC12 cells", "result": "++ (equal to)"}
    ]},
    {"compound": "CC(=O)[C@H]1[C@H](C)C[C@H]2[C@@H]3CC=C4C[C@@H](O)CC[C@]4(C)[C@H]3CC[C@@]21C", "note": "[PREG-16α-methyl]", "values": [
      {"measurement": "Neuritic sprouting", "setting": "PC12 cells", "result": "++ (equal to)"}
    ]},
    {"compound": "CO[C@H]1CC[C@@]2(C)[C@@H](CC[C@@H]3[C@@H]2CC[C@]2(C)[C@@H](C(C)=O)CC[C@@H]32)C1", "note": "[3β-methoxy-5α-pregnane-20-one]", "values": [
      {"measurement": "Neuritic sprouting", "setting": "PC12 cells", "result": "+++"}
    ]},
    {"compound": "PREG-16α,17α-epoxy", "values": [
      {"measurement": "Neuritic sprouting", "setting": "PC12 cells", "result": "+ (lower than)"}
    ]},
    {"compound": "CC#C[C@]1(O)CC[C@H]2[C@@H]3CCC4=CC(=O)CCC4=C3[C@@H](c3ccc(N(C)C)cc3)C[C@@]21C", "note": "[RU486]", "values": [
      {"measurement": "progesterone receptor antagonist activity", "setting": "[1]", "result": "very high antagonist activity"}
    ]},
    {"compound": "CO[C@H]1CC[C@@]2(C)C(CCC3C2CC[C@@]2(C)C3CC[C@@H]2[C@@H](C)O)C1", "note": "(stereo partly drawn) [3β-methoxy-5α-pregnane-20β-ol]", "values": [
      {"measurement": "Neuritic sprouting", "setting": "PC12 cells", "result": "++ (equal to)"}
    ]},
    {"compound": "CC(=O)[C@@]12C[C@@H]1C[C@H]1[C@@H]3CC=C4C[C@@H](O)CC[C@]4(C)[C@H]3CC[C@@]12C", "note": "[PREG-16α,17α-methylene]", "values": [
      {"measurement": "Neuritic sprouting", "setting": "PC12 cells", "result": "+ (lower than)"}
    ]},
    {"compound": "CNCCC(Oc1ccc(C(F)(F)F)cc1)c1ccccc1", "note": "(centres unmarked) [fluoxetine]", "values": [
      {"measurement": "Acet-Tub (stable acetylated α-tubulin)", "setting": "[2]", "result": "tendency to increase"},
      {"measurement": "Tyr/Glu-Tub ratio", "setting": "[2]; 3 h", "result": "did not change"}
    ]},
    {"compound": "CO[C@H]1CC[C@@]2(C)C(=CC[C@@H]3[C@@H]2CC[C@@]2(C)[C@H]3CC[C@@]2(C(C)=O)C(Cl)Cl)C1", "note": "[3β-methoxy-pregna-5-ene-20-one-17α-dichloromethyl]", "values": [
      {"measurement": "Neuritic sprouting", "setting": "PC12 cells", "result": "+++"}
    ]},
    {"compound": "pregnenolone sulfate", "values": [
      {"measurement": "microtubule polymerization", "setting": "[3]", "result": "do not stimulate polymerization"}
    ]},
    {"compound": "CC(=O)[C@H]1CC[C@H]2[C@@H]3CCC4=CC(=O)CC[C@]4(C)[C@H]3CC[C@]12C", "note": "[progesterone, reference compound]", "values": [
      {"measurement": "microtubule polymerization", "setting": "[3]", "result": "do not stimulate polymerization"},
      {"measurement": "progesterone receptor agonist activity (transactivation)", "setting": "[4]", "result": "permits a transactivation activity leading to the expression of luciferase"}
    ]},
    {"compound": "CC(=O)[C@H]1CC[C@H]2[C@@H]3CC=C4C[C@@H](O)CC[C@]4(C)[C@H]3CC[C@]12C", "note": "[PREG, pregnenolone]", "values": [
      {"measurement": "rat climbing behavior in the FST", "setting": "Sprague Dawley rats", "result": "not changed"},
      {"measurement": "rat swimming in the FST", "setting": "Sprague Dawley rats", "result": "significantly increased"},
      {"measurement": "microtubule polymerization", "setting": "[3]", "result": "activates microtubule polymerization"},
      {"measurement": "Lag time of microtubule polymerization", "setting": "[3]; [6]", "result": "decreased"},
      {"measurement": "polymerization rate and quantity of microtubules", "setting": "[3]; [6]", "result": "clearly increase"},
      {"measurement": "increase in the average length of the neurites", "setting": "PC12 cells; 3 days of culture, NGF", "result": 60, "unit": "%"},
      {"measurement": "Neuritic sprouting", "setting": "PC12 cells", "result": "++ (equal to)"},
      {"measurement": "motor dysfunction (RotaRod)", "setting": "[5]", "result": "Only the 3-methoxy-PREG had a beneficial effect"},
      {"measurement": "Acet-Tub (stable acetylated α-tubulin)", "setting": "[2]", "result": "significantly decreased"},
      {"measurement": "cellular toxicity", "setting": "PC12 cell line", "result": "do not demonstrate toxicity"}
    ]}
  ]
}
